Measured values: publication PMC7613998, “Development of selective inhibitors of phosphatidylinositol 3-kinase C2α” (Nature Chemical Biology, 2022)

Molecular target: T1, PI3KC2α (Homo sapiens, UniProt O00443)
T1 construct: gene PIK3C2A; human PI3KC2α^ΔN (amino acids 376–1686)
Assay: ADP-Glo lipid kinase assay with PI as substrate
Format: biochemical

T1 sequence (O00443 376-1686): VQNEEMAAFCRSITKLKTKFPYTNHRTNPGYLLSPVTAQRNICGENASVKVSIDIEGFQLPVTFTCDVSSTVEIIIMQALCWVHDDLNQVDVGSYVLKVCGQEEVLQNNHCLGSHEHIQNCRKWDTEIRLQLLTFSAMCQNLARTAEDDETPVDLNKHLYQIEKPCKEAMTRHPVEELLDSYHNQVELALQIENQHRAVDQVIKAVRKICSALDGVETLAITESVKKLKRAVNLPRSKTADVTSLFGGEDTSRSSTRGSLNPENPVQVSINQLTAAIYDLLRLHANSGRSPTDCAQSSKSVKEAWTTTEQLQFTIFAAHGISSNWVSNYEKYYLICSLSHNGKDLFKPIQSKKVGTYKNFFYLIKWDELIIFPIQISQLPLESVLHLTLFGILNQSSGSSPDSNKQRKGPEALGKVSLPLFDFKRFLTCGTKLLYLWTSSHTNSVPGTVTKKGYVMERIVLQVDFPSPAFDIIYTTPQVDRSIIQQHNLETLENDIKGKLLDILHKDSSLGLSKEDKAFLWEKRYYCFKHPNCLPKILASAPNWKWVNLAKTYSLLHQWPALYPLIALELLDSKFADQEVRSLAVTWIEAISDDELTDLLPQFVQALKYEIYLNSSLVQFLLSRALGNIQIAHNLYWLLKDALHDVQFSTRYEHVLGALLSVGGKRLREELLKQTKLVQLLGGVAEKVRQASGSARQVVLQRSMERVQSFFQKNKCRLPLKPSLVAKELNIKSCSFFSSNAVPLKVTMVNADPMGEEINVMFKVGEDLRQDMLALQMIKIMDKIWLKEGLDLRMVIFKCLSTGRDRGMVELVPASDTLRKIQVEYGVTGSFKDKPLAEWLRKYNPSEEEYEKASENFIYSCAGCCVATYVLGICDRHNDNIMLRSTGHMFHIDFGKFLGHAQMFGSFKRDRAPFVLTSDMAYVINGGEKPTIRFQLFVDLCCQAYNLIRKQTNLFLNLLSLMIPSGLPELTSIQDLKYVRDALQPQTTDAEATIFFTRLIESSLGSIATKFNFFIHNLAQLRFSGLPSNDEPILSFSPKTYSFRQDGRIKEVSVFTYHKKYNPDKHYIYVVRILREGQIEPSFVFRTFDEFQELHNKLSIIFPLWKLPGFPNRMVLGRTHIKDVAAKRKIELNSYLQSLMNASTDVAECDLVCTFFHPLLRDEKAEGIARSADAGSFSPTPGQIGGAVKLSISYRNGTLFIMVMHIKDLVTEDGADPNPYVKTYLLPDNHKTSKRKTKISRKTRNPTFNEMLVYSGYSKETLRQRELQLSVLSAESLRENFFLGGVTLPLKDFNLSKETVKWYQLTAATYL

CC(C)CCn1c(SCC(=O)Nc2ccccc2C(F)(F)F)nc2nccnc2c1=O [compound 4]
IC50: 2.6 µM
